Laboratory results: patent publication US20070026042A1, “System for treating aneurysmal disease” (priority 2005, published 2007)
Each block holds one compound with its values, some of them ahead of it.

Legend:
[1] = test system: infrarenal abdominal aorta; experiment: Elastase-induced abdominal aortic aneurysm model in rats; type: in vivo, Wistar rats; conditions: for relative efficacy in suppressing aneurysmal dilatation compared to Dox at the same dose / inhibition of aortic dilatation induced by elastase perfusion: 15 mg/kg/day; for inhibition of aortic dilatation induced by elastase perfusion: vs saline, Student's t-test
Description: Male Wistar rats (350-400 g) were subjected to perfusion of an isolated segment of the infrarenal abdominal aorta with 50 units of porcine pancreatic elastase, using the method described by Anidjar. et al. (Anidjar, S, Salzmann, J L, Generic, D, Lagneau, P, Camilleri, J P, and Michel, J B, “Elastase induced experimental aneurysms in rats,” Circulation 82:973-981 (1990); Halpern et al. (Halpern, V J. Liao, Nackman, G B, Gandhi, R H, Irizarry, E, Scholes, J V, Ramey, W G, and Tilson, M D, “The elastase infusion model of experimental aortic aneurysms: Synchrony of induction of endogenous protinases with matrix destruction and inflammatory cell response,” J. Vasc. Surg. […] Surg 23:336-346 (1996)). This method is an accepted model for experimental induction of abdominal aortic aneurysms. The animals (n=6 rats in each group) were then treated with twice-daily subcutaneous injections of either saline vehicle (control), or various doses of doxycycline (Dox) or one of four different, non-antibiotic, chemically-modified tetracyclines (CMTs; CollaGenex, Inc., Newtown, Pa.). Aortic diameter (AD) was measured with microcalipers before and after elastase perfusion, and just prior to sacrifice on day 7. Abdominal aortic aneurysms were defined as an increase in final AD to at least twice that measured before perfusion (≥ 100% increase). Aortic tissues from two animals in each group were perfusion-fixed with 10% neutral buffered formalin, embedded in paraffin, and stained with Verhoeff-van Geisen (WG) for elastin. Tissues from the remaining animals were extracted, normalized to total protein, and analyzed by gelatin substrate zymography as described (Thompson et al. 1995; Halpern et al. 1994; Petrinec 1996).
For saline-treated control animals, mean AD increased by 125.±.18%, and 5 of the 6 (83%) of the animals had abdominal aortic aneurysms as defined.

[2] = test system: human coronary artery smooth muscle cells; experiment: Anti-proliferative activity in cultured human coronary artery smooth muscle cells; type: cell-based
Description: The multiple curves represent various concentrations of mycophenolic acid ranging from zero to one thousand nanomolar concentrations.
FIG. […]
The multiple curves represent various concentrations of cladribine ranging from zero to nine hundred nanomolar concentrations.
(§1) The multiple curves represent various concentrations of topotecan ranging from zero to three hundred nanomolar concentrations.
(§2) The multiple curves represent various concentrations of etoposide ranging from zero to eight hundred nanomolar concentrations.
The multiple curves represent various concentrations of Panzem® ranging from zero to 100 micromolar concentrations.

[3] = Cell viability assay (cytotoxicity); type: cell-based
Description: as §1, §2

[4] = Liquid formulations of sirolimus and analogs: drug concentration by liquid chromatography, visual observation; type: physicochemical; conditions: Vitamin E TPGS, water, ethanol less than two percent
Description: Certain excipients, such as Vitamin E TPGS and BHT may be utilized to enhance the storage stability of sirolimus compounds through their anti-oxidation properties.
The concentrations of each constituent were determined by liquid chromatography and are presented as weight by volume figures.
In another exemplary embodiment, the liquid formulation of sirolimus comprises water and ethanol as co-solvents and Vitamin E TPGS as the excipient. The liquid formulation was created utilizing the following process. Two hundred milligrams of sirolimus and two grams of ethanol were added to a pre-weighed twenty milliliter scintillation vial. The vial was vortexed and sonicated until the sirolimus was completely dissolved. Approximately six hundred milligrams of Vitamin E TPGS was then added to the solution of ethanol and sirolimus. The vial was vortexed again until a clear yellowish solution was obtained. Nitrogen gas was then used to reduce the amount of ethanol in the vial to approximately two hundred twenty-nine milligrams. In a separate vial, three hundred milligrams of Vitamin E TPGS was dissolved in eleven milliliters of purified water while undergoing vortexing. The Vitamin E TPGS and water solution was then added to the first vial containing the sirolimus, Vitamin E TPGS and ethanol. The first vial was then vortexed vigorously and continuously for three minutes. […]

[5] = test system: human coronary artery smooth muscle cell; experiment: MTS cytotoxicity assay; type: cell-based; conditions: 6.6 nanomolar to 30,000.00 nanomolar, FIG. 69
Description: Typically, a control is utilized to determine baseline toxicity.

tumor cell lines = conditions: Woo et al., J. Med Chem 2002; cited from earlier work
[6] = synchronized cells, two percent fetal bovine serum
[7] = non-synchronized cells, two percent fetal bovine serum

Compound: C[C@H]1c2cccc(O)c2C(O)=C2C(=O)[C@]3(O)C(O)=C(C(N)=O)C(=O)C[C@@H]3[C@@H](O)[C@@H]21 [CMT-8, 6-α-deoxy-5-hydroxy-4-dedimethylaminotetracycline]
- relative efficacy in suppressing aneurysmal dilatation compared to Dox at the same dose [1]: 105%
- inhibition of aortic dilatation induced by elastase perfusion [1]: statistically significant

Compound: 4-dedimethylamino-12a-deoxytetracycline [CMT-7]
- relative efficacy in suppressing aneurysmal dilatation compared to Dox at the same dose [1]: 92%
- inhibition of aortic dilatation induced by elastase perfusion [1]: statistically significant

Compound: CC[C@@]1(O)C(=O)OCc2c1cc1n(c2=O)Cc2cc3c(CN(C)C)c(O)ccc3nc2-1 [topotecan]
- effect of addition to rapamycin-treated cells on the anti-proliferative rapamycin dose response curve [2, 6]: leftward and upward shift
- cytotoxicity in cell viability assay ([3]; concentrations up to one micromolar): non-cytotoxic

- concentration of CCI-779 in the final solution (HPLC) [4]: 15000 µg/mL
Compound: CO[C@H]1C[C@@H]2CC[C@@H](C)[C@@](O)(O2)C(=O)C(=O)N2CCCC[C@H]2C(=O)O[C@H]([C@H](C)C[C@@H]2CC[C@@H](OC(=O)C(C)(CO)CO)[C@H](OC)C2)CC(=O)[C@H](C)/C=C(\C)[C@@H](O)[C@@H](OC)C(=O)[C@H](C)C[C@H](C)/C=C/C=C/C=C/1C [CCI-779]

Compound: COc1cc([C@@H]2c3cc4c(cc3[C@@H](O[C@@H]3O[C@@H]5CO[C@@H](C)O[C@H]5[C@H](O)[C@H]3O)[C@H]3COC(=O)[C@H]23)OCO4)cc(OC)c1O [etoposide]
- effect of addition to rapamycin-treated cells on the anti-proliferative rapamycin dose response curve [2, 7]: leftward and upward shift
- cytotoxicity in cell viability assay ([3]; concentrations up to ten micromolar): non-cytotoxic

Compound: C[C@H]1c2cccc(O)c2C(=O)C2=C(O)[C@]3(O)C(=O)C(C(N)=O)=C(O)[C@@H](N(C)C)[C@@H]3[C@@H](O)[C@@H]21 [Dox, doxycycline]
- aortic dilatation (mean increase in aortic diameter) ([1]; 60 mg/kg/day, twice-daily subcutaneous injections, day 7, saline control 125.±.18%): 61.±.7%
- dose of maximal inhibition of aortic dilatation ([1]; dose-dependent effect, FIG. 76): about 12.5 mg/kg/day

Compound: COc1cc2c(cc1O)CC[C@@H]1[C@@H]2CC[C@]2(C)[C@@H](O)CC[C@@H]12 [Panzem®, 2-methoxyestradiol]
- effect of addition to rapamycin-treated cells on the anti-proliferative rapamycin dose response curve [2, 6]: increases the percent of inhibition of rapamycin alone
- inhibition of human coronary artery smooth muscle cell proliferation in vitro ([2]; synchronized cells, two percent fetal bovine serum, FIG. 66): extremely effective inhibitor
- cell survival in MTS assay [5]: do not reduce human coronary artery smooth muscle cell survival

Compound: CC1(O)c2c(Cl)ccc(O)c2C(=O)C2=C(O)C3(O)C(=O)C(C(N)=O)=C(O)CC3CC21 (stereo not drawn) [CMT-4, 4-dedimethylamino-7-chlorotetra-cycline]
- relative efficacy in suppressing aneurysmal dilatation compared to Dox at the same dose [1]: 75%
- inhibition of aortic dilatation induced by elastase perfusion [1]: did not reach statistical significance

Compound: CC(/C=C/C(=O)NO)=C\[C@@H](C)C(=O)c1ccc(N(C)C)cc1 [trichostatin A]
- anti-proliferative IC50's (tumor cell lines): low nM range
- IC50 ([2]; in vitro cell culture studies): ~6 nM
- inhibition of human coronary artery smooth muscle cell proliferation ([2]; in vitro cell culture studies, FIG. 51): completely inhibit

Compound: Nc1nc(Cl)nc2c1ncn2[C@H]1C[C@H](O)[C@@H](CO)O1 [Cladribine, 2-chlorodeoxyadenosine]
- inhibition of human coronary artery smooth muscle cell proliferation ([2]; non-synchronized cells stimulated with two percent fetal bovine serum, FIG. 58): completely inhibits
- effect of addition to rapamycin-treated cells on the anti-proliferative rapamycin dose response curve [2, 7]: leftward and upward shift

Compound: NC(=O)C1=C(O)C[C@@H]2C[C@@H]3Cc4cccc(O)c4C(=O)C3=C(O)[C@]2(O)C1=O [CMT-3, 6-demethyl-6-deoxy 4-dedimethylaminotetracycline]
- relative efficacy in suppressing aneurysmal dilatation compared to Dox at the same dose [1]: 92%
- inhibition of aortic dilatation induced by elastase perfusion [1]: statistically significant

Compound: COc1c(C)c2c(c(O)c1C/C=C(\C)CCC(=O)O)C(=O)OC2 [mycophenolic acid]
- effect of addition to rapamycin-treated cells on the anti-proliferative rapamycin dose response curve [2, 7]: leftward and upward shift
